Assay [1] in a line: Inhibition of human serum classical complement system assessed as modulation of complement pathway by classical hemolytic complement assay.
Assay [2] in a line: Inhibition of human serum alternative complement system assessed as modulation of complement pathway by alternative hemolytic complement assay.
The subject of a further assay is Aspergillus niger. As to the kind of experiment: Antifungal activity against Aspergillus niger. In kind it is functional.
Another assay has as its system Trichophyton rubrum. As to the kind of experiment: Antifungal activity against Trichophyton rubrum. The assay is classed as functional.
Another assay has as its system Candida albicans. In words: Antifungal activity against Candida albicans. The assay is classed as functional.
For the next assay, the system named is Bacillus cereus. In words: Antibacterial activity against Bacillus cereus. In kind it is functional.
Another assay relates to Escherichia coli. In words: Antibacterial activity against Escherichia coli. In kind it is functional.
Another assay relates to Pseudomonas aeruginosa. In words: Antibacterial activity against Pseudomonas aeruginosa. The assay is classed as functional.
Another assay relates to Staphylococcus aureus. As to the kind of experiment: Antibacterial activity against Staphylococcus aureus. In kind it is functional.
In another assay the test system is SF-295. In words: Growth inhibition of human SF295 cells. In kind it is functional.
Another assay relates to Human alphaherpesvirus 1. As to the kind of experiment: Antiviral activity against HSV1 assessed as reduction factor of viral titer at 100 ug/ml. In kind it is functional, organism-based.
Assay [3] can be described thus: Growth inhibition of human NCI60 cells. In kind it is functional.
Assay [4] is described as follows: Inhibition of human serum classical complement system assessed as modulation of complement pathway at 420 uM by classical hemolytic complement assay.

The source made the active and inactive calls. The calls are words filed in the database; no cut-off is given here.

Regarding `CC(C)C1=CC(=O)[C@](C)([C@H]2[C@H](O)C[C@@]3(C)[C@@H]4CC=C5[C@@H](CC[C@@H](O[C@@H]6OC[C@@H](O)[C@H](O)[C@H]6O[C@@H]6O[C@@H](C)[C@H](O)[C@@H](O)[C@H]6O)C5(C)C)[C@]4(C)C(=O)C[C@]23C)O1` [PICFELTARRACEMIN IA], the Activity entry in [1] and in assay [2] was “Dose-dependent effect” each time. In addition, the IC50 in [1] was determined as 95 µM; in assay [2], 336 µM. The MIC against Aspergillus niger, in the assay on Trichophyton rubrum, against Candida albicans, in the assay with Bacillus cereus, against Escherichia coli and against Pseudomonas aeruginosa was above 100 µg/mL each time. Moreover, in the assay on Staphylococcus aureus, the MIC was above 100 µg/mL. For the same compound, the figures for the GI50 (in the assay on SF-295; in assay [3]) were 59 µM and above 100 µM, respectively. The result with Human alphaherpesvirus 1 was Active. For the same compound, in assay [3], the TGI was above 100 µM.

Regarding `CC(C)C1=CC(=O)[C@](C)([C@H]2[C@H](O)C[C@@]3(C)[C@@H]4CC=C5[C@@H](CC[C@@H](O[C@@H]6O[C@H](CO)[C@@H](O)[C@H](O)[C@H]6O[C@@H]6O[C@@H](C)[C@H](O)[C@@H](O)[C@H]6O)C5(C)C)[C@]4(C)C(=O)C[C@]23C)O1` [PICFELTARRACEMIN IB], the Activity entry in assay [1] and in assay [2] was “Dose-dependent effect” in each case. The IC50 in assay [1] is above 420 µM; in assay [2], 68 µM. The MIC against Aspergillus niger, in the assay on Trichophyton rubrum, in the assay with Candida albicans, in the assay on Bacillus cereus, against Escherichia coli and in the assay with Pseudomonas aeruginosa was above 100 µg/mL throughout. This compound registered a minimum inhibitory concentration (MIC) against Staphylococcus aureus above 100 µg/mL. Moreover, the outcome with Human alphaherpesvirus 1 was Active. Further, in assay [4], the inhibition was found to be 48%. Besides, the GI50 in [3] is above 100 µM. The same compound displayed a TGI in assay [3] above 100 µM.

Consider `CC(C)C1=CC(=O)[C@](C)([C@H]2[C@H](O)C[C@@]3(C)[C@@H]4CC=C5[C@@H](CC[C@@H](O[C@@H]6OC[C@@H](O)[C@H](O[C@@H]7O[C@H](CO)[C@@H](O)[C@H](O)[C@H]7O[C@@H]7O[C@@H](C)[C@H](O)[C@@H](O)[C@H]7O)[C@H]6O)C5(C)C)[C@]4(C)C(=O)C[C@]23C)O1` [PICFELTARRACEMIN IV], for which the Activity result in assay [1] and in [2] was “Dose-dependent effect” in each case. Further, the values for the IC50 in [1] and in assay [2] were 131 µM and 313 µM, respectively. The MIC with Aspergillus niger, with Trichophyton rubrum, in the assay on Candida albicans, in the assay with Bacillus cereus, against Escherichia coli and against Pseudomonas aeruginosa was above 100 µg/mL in each case. The minimum inhibitory concentration (MIC) in the assay with Staphylococcus aureus is above 100 µg/mL. Also, the result with Human alphaherpesvirus 1 was Active.

With `CC(C)C1=CC(=O)[C@](C)([C@H]2[C@H](O)C[C@@]3(C)[C@@H]4CC=C5[C@@H](CC[C@@H](O[C@@H]6OC[C@@H](O)[C@H](O)[C@H]6O)C5(C)C)[C@]4(C)C(=O)C[C@]23C)O1` [PICFELTARRACEMIN VI], the Activity result in assay [1] and in assay [2] was “Dose-dependent effect” throughout. In addition, the IC50 in assay [1] was found to be 29 µM; in [2] it was 21 µM. The MIC against Aspergillus niger, in the assay with Trichophyton rubrum, in the assay on Candida albicans, in the assay on Bacillus cereus, against Escherichia coli and with Pseudomonas aeruginosa was above 100 µg/mL each time. Further, the MIC in the assay on Staphylococcus aureus is above 100 µg/mL. The outcome in the assay on Human alphaherpesvirus 1 was Active.

Consider `O=C(/C=C/c1ccc(O)c(O)c1)O[C@H](Cc1ccc(O)c(O)c1)C(=O)O` [ROSMARINIC ACID], for which the IC50 in [1] is 81 µM; in [2] it was 408 µM.

The term IC50 denotes the midpoint of a concentration-inhibition curve. As usually defined, the MIC is the lowest concentration that inhibits growth of the organism. Broadly, the GI50 is the concentration giving 50% growth inhibition. Read a low GI50 as more potent growth inhibition. One may read the TGI as the concentration giving total growth inhibition. By inhibition is commonly meant the change of the read-out against control, counted positive when it falls.

For the origin of these results see ChEMBL document CHEMBL1150903, “Complement-inhibiting cucurbitacin glycosides from Picria fel-terrae” (J Nat Prod, 1998).
